From a melting point compilation (Tetko et al.; mined from patent text by program, amines drawn as free bases though some values may be those of a salt) come the findings set out here.

One may read the melting point as the temperature, or range, at which the solid turns liquid.

The molecule `N#CC1=C(c2ccccc2)Nc2n[nH]cc2C1c1cccc2c1OCCC2` (stereo not given) registered a melting point of 255 °C. The same measure for `CC(C)CCC(=O)N[C@H]1CC[C@H](CCN2CCC(c3cccc4c3CCO4)CC2)CC1`: 188 °C; for `COc1ccc(/C=C/C(=O)C#CCO)cc1`: 68 to 69 °C. The same measure for `COc1ccc(CC2SC(=O)NC2=O)c2c1N(Cc1ccc([N+](=O)[O-])cc1)C(=O)CC2` (stereo not given): 246 to 247 °C; for `COc1ccc(Nc2ccccc2)c2c1c(CCN(C)C)cn2C`: 158 to 160 °C; for `CN(C)C=C(C1=NCCCS1)[N+](=O)[O-]`: 168 to 170 °C. With `CCN1C(=O)Cc2cc3c(cc21)CCO3`, the melting point is 106 to 107 °C. The same measure for `CCCCc1cc2cn(C3CCCC3)c(=O)nc2o1`: 130 to 131 °C; for `Nc1cccc(-c2ccc(C3(O)C4CCC3CN(Cc3ccco3)C4)cc2)n1` (stereo not given): 187 to 202 °C. To `Cn1c2c(c3ccccc31)C(=O)NCC2` belongs 240 to 244 °C; to `c1ccc(C(N=C2NCCN2)c2ccccc2)cc1`, 189 to 190 °C. To `NC(=O)C(c1ccccc1)(c1ccccc1)[C@@H]1CCNC1` belongs 128 to 132 °C; to `CC(C)C(S)C(=O)NC1(C(=O)NC(Cc2ccc(-c3ccc(F)cc3)cc2)C(=O)O)CCCC1` (stereo not given), 196 to 198 °C; to `O=C(O)C1=Cc2ccccc2OC1C(F)(F)F` (stereo not given), 152 to 153 °C. `CCCc1c(C(=O)C(C)C)c2ccc(C(N)=O)cc2n1Cc1ccc(Br)cc1Cl` displayed a melting point of 199 to 201 °C. To `OC(c1ccccc1)(c1ccc(Cl)cc1)c1ncc[nH]1` (stereo not given) belongs 163 to 165 °C; to `O=C(NN1CCCCC1)NS(=O)(=O)c1ccc(CCN2C(=O)c3ccccc3C2(O)c2ccccc2)cc1` (stereo not given), 228 °C; to `CC(C)C(=O)Oc1cccc2c1C(=O)c1c(O)cccc1C2C(=O)C1CCCCC1` (stereo not given), 146 °C. Molecule `Cc1cc(Oc2c(Cl)cc(C(F)(F)F)cc2Cl)nn1C(=O)NCC1CCCO1` (stereo not given) registered a melting point of 74 to 76 °C. The same measure for `C[C@@H](c1ccc(-c2ccc(C#N)cn2)cc1)N1CC[C@](CC(C)(C)O)(c2ccc(F)cc2)OC1=O`: 155 to 157 °C; for `CNc1ccccc1CS(=O)c1nccn1-c1cc(C)ccn1` (stereo not given): 112 to 114 °C.

For the molecule `COCc1cc2c(s1)CCc1cc(=O)n(-c3ccc(C)cc3)nc1-2`, the melting point was 132 to 133 °C.

`Clc1cccc(-c2ncoc2-c2ccncc2)c1` displayed a melting point of 125 to 126 °C. To `CCCCCCNC(=O)Oc1ccc2c(c1)N(Cc1ccccc1)CCC2` belongs 85 °C; to `CC(=O)c1cnc(N)o1`, 214 to 215 °C. To `CC(Cc1ccc(C2OC(N)=NC2=O)cc1)NCC(O)c1cccc(C(F)(F)F)c1` (stereo not given) belongs 152 to 164 °C.

In the case of `O=C(NCCCCCOc1ccc(-n2ccnc2)cc1)c1ccc(Br)cc1`, the melting point fell in the range of 150 to 151 °C.

As to `O=Nc1c(-c2ccccc2)nc2ccccn12`, the melting point fell in the range of 165 to 167 °C.

`CC(=O)OC1(Cc2ccncc2)C(=O)N(N2CCCCC2)c2ccccc21` (stereo not given) had a melting point of 139 to 140 °C. The same measure for `COc1cc(C(C)=O)ccc1OCCCCN1C2CCC1CC(c1n[nH]c3cc(F)ccc13)C2` (stereo not given): 148 to 149 °C. Consider `Cc1cc(Cl)ccc1OCC(=O)Nc1ccc(S(N)(=O)=O)cc1`, for which the melting point was in the range of 218 to 220 °C.

`COc1cc2c(cc1O)C1Cc3c(Cl)cc(OC)c(OC(C)=O)c3CN1CC2` (single isomer, unassigned; (-)) registered a melting point of 172 to 173 °C. The molecule `O=C(O)C=C1SC(=NC2CCCCC2)N(C2CCCCC2)C1=O` registered a melting point of 189 to 190 °C. `Cc1ccc(C2COc3c(C)c(C)c(Br)c(C)c32)cc1` (stereo not given) showed a melting point of 108 to 109 °C.

On to `CCCCOC(=O)C=C(C)C=CC=C(C)C=Cc1c(C)cc(C)c([N+](=O)[O-])c1C`, for which the melting point lay within 205 to 206 °C. Molecule `CCC(O)(CC)[C@H](C[C@H](O)[C@H](CC1CCCCC1)NC(=O)OC(C)(C)C)C(=O)NC` gave a melting point of 152 to 155 °C.

On to `CC(=O)c1ccc(S(=O)(=O)n2c(CCC(=O)O)cc3cc(Cl)ccc32)cc1`, for which the melting point is 159 to 161 °C. The same measure for `CC(C)c1ccc(C(F)(F)C(F)(F)c2ccccc2)cc1`: 97 to 104 °C. The same measure for `COc1ccc2oc(Cc3cccnc3)c(CCNC(C)=O)c2c1`: 117 °C; for `COc1ccc(C(=O)NNC(=O)c2occ(-c3ccccc3)c2-c2ccccc2)cc1NC(=O)OC(C)(C)C`: 137 to 141 °C; for `CC(=NC#N)N[C@@H]1c2cc(C#N)ccc2OC(C)(C)[C@H]1OS(C)(=O)=O` (relative stereo): 202 to 204 °C. The same measure for `CNC(=O)N(O)C(C)c1cc2cc(Cl)ccc2[nH]1` (stereo not given): 159 to 160 °C; for `O=C(Cc1ccccc1)N1CCC2(Cc3ccccc3O2)C1` (stereo not given): 98 to 99 °C.

`CCOC(=O)CCn1cc(CN(C)C)n(C2CCc3ccccc3C2)c1=S` (stereo not given) came in with a melting point of 128 to 130 °C.

The molecule `Cc1csc2nc3ccc(C(F)(F)F)cc3n12` returned a melting point of 127 °C.

Regarding `N#Cc1cc(C(F)(F)F)nn1-c1ccc(NC(=O)c2cccnc2F)cc1`, the melting point lay within 150 to 151 °C. To `Cc1ncc2c(c1O)COC2(C)C` belongs 247 °C. Turning to `Nc1ccc(C(=O)N2CCCCCC2=O)cc1`, the melting point lay within 156 to 158 °C.

For the molecule `CC(C)(C)C(=O)Nc1c(F)cc(F)cc1C#Cc1ccc(SC2CCOCC2)cc1`, the melting point was 148 to 149 °C.

In turn, `Oc1cccc2c1C=CC=CN2` displayed a melting point of 132 to 136 °C.

On to `N#CC1=C(Nc2ccc(F)cc2F)CCC1`, for which the melting point is 116 to 119 °C. To `CCOC(=O)c1sc(Oc2ccc(Cl)cc2Cl)nc1-c1cccc(C(F)(F)F)c1` belongs 72 to 73 °C; to `N#CCCNC(=O)c1cccc(-c2cccn3nc(Nc4cccc(C(F)(F)F)c4)nc23)c1`, 214 to 215 °C; to `FC(F)(F)c1cccc(-c2ccn3ncnc3n2)c1`, 201 to 202 °C.

As to `CN(C)C1(c2ccccn2)CCC(NCCc2c[nH]c3ccccc23)CC1` (stereo not given), the melting point lay in the range of 150 to 152 °C. To `COc1cc2c(cc1C)CCN=C2C1(c2ccsc2)CC1` belongs 116 to 118 °C; to `CC1(C(=O)O)OC2CCCCC2NC1=O` (stereo not given), 142 to 144 °C; to `CC(C)SN(c1ccccc1)P(=O)(c1ccccc1)c1ccccc1`, 148 to 150 °C. `CC1(C)C=C(c2ccc3ccccc3n2)c2cc(C#N)ccc2O1` displayed a melting point of 102 to 104 °C. To `COC(=O)C(C)Oc1ccc([N+](=O)[O-])cc1` (stereo not given) belongs 79 to 80 °C. To `O=S(=O)(NC(c1ccc(F)cc1)c1ccnn1-c1ccc(F)cc1)c1ccc(Cl)s1` (stereo not given) belongs 159 to 160 °C; to `Cc1cccc(C(=O)O)c1NC(=O)COc1ccccc1`, 174 to 176 °C; to `Cc1cc(OC(=O)N[C@@H](CCC(=O)O)C(=O)O)ccc1N(CCCl)CCCl`, 160 to 162 °C.

`COc1ccc2c3c(c(=O)oc2c1)CN(Cc1cc(OC)c(OC)c(OC)c1)CC3` yielded a melting point of 171 to 173 °C. In turn, `CCNC(=O)c1sc(C)c(C)c1[Si](C)(C)C` showed a melting point of 77 to 80 °C. For the molecule `CC(=O)Oc1cc(-c2ccccc2)oc(=O)c1Sc1ccccc1C(C)C`, the melting point fell in the range of 113 to 115 °C. To `CN(C)CCOc1ccc(N(CCN(C)C)c2nccc(-c3ccncc3)n2)cc1` belongs 87 to 91 °C; to `CCCCCN1Cc2cccc(S(=O)(=O)NC(=O)Nc3nc(OC)cc(OC)n3)c2S1(=O)=O`, 197 to 203 °C. The same measure for `CCCc1cc(C(=O)O)ccc1OCc1ccccc1`: 163 °C; for `Nc1ccc(-c2nc(N3CCOCC3)c3sc(C(=O)NCC4CCN(c5ncc(C(=O)NO)cn5)CC4)cc3n2)cc1`: 232 to 238 °C; for `Cc1cc2c(cc1Cl)nc(Br)n2[C@@H]1OC[C@@H](O)[C@@H](O)[C@H]1O`: 150 °C. The same measure for `O=C(Nc1ccc(C(F)(F)F)cc1)Nc1ccc2ncccc2c1`: 259 to 263 °C; for `CC(C)(C)OC(=O)N1CCC(c2ncc(-c3cnc(-c4ccccc4)nc3)[nH]2)C1` (stereo not given): 219 °C.

`COc1cc(Br)ccc1-c1ccc(Br)cc1[N+](=O)[O-]`: the melting point lay within 127 to 129 °C. The same measure for `O=Cc1cc2c(cc1O)OCCO2`: 114 to 115 °C; for `O=C(Nc1cccc2c1C(=O)OC2=O)c1ccc(Cl)s1`: 195 °C. To `CCCOc1cc(OC)cc(O)c1C(=O)C=Cc1ccc(OC)cc1` belongs 117 °C; to `CCCO[C@@H](C)C(=O)Oc1ccc(-c2ccc(O)cc2)cc1`, 120 °C.

Regarding `CC1(C)N=C(SCc2cccc3cccnc23)N=C1SCc1cccc2cccnc12`, the melting point is 101 to 104 °C. The same measure for `CS(=O)(=O)c1ccc(-n2cnc(Cl)c2-c2cnc(Cl)c(Cl)c2)cc1`: 223 to 230 °C; for `COc1cc(OC)cc(S(=O)(=O)c2ccc([N+](=O)[O-])c(C)c2)c1`: 125 to 127 °C; for `COc1ccc(N2C(=O)C(=C3CCCN3C)c3ccccc32)cc1F`: 68 to 71 °C. To `O=S(=O)(CCCl)CCC(F)(F)C(F)(F)C(F)(F)C(F)(F)C(F)(F)C(F)(F)F` belongs 104 to 106 °C. The same measure for `O=Cc1ccc(OCc2ccccc2)c2[nH]c(C(=O)O)cc12`: 207 °C; for `Cc1nc(N2CCN(Cc3ccc(F)cc3)C2=O)sc1C(=O)NCc1ccncn1`: 175 to 176 °C; for `CCc1c(C)c(NC(=O)CC(C)(C)C)c(C)c2c1OCC2c1ccc(C(C)C)cc1` (stereo not given): 135 to 136 °C. `CCCCc1nc(C=O)c(Br)[nH]1` returned a melting point of 113 °C. The same measure for `O=C1CC(CCCl)c2ccccc2N1` (stereo not given): 112 to 113 °C. To `COc1cc2[nH]c(=O)n(CCCS)c(=O)c2cc1OC` belongs 236 °C; to `CCCC(=O)c1cc2c(c(Cl)c1Cl)OC(C(=O)O)C2` (stereo not given), 124 to 125 °C.
